Consider 11 compounds from US12624034B2, “Non-covalent modifiers of AKT1 and uses thereof” (Terremoto Biosciences, Inc., priority 2023, dated 2026).

Read-outs that look alike come from different tables or passages of the source.

One assay has as its target T1, AKT2 (Homo sapiens, UniProt P31751).
T1 construct: expressed in transfected cells; host or cells: HEK293
In words: Live cell AKT2 target engagement by NanoBRET competitive probe displacement in HEK293 cells. The class given is binding. To be noted: 2 h at 37° C., read-out: AKT2 IC50.

The next assay addresses T2, AKT1 E17K (Homo sapiens, UniProt P31749, E17K).
T2 construct: expressed in transfected cells; host or cells: HEK293
In words: Live cell AKT1 E17K target engagement by NanoBRET competitive probe displacement in HEK293 cells. The settings on record: 2 h at 37° C. The format is binding. As for the experimental part:
Determining live cell AKT1 E17K, AKT1 WT, and AKT2 target engagement by NanoBRET competitive probe displacement. Live cell target engagement assays were performed as described (Vasta, J. D. et al. Cell Chem Biol 2018, 25(11), 206-214). Briefly, HEK293 cells were transfected with plasmids encoding kinase-NanoLuciferase fusion proteins overnight. Cells were then treated with serial dilutions of compound and an ˜EC50 concentration of fluorescently-tagged ATP-competitive tracer (Promega). After incubation for 2 h at 37° C., luciferase substrate and extracellular luciferase inhibitor were added to all wells, and luminescent intensity at 460 nm and 600 nm were measured on a multimode plate-reader. The ratio of E600/E460 was calculated to give the tracer engagement signal (BRET). IC50 values were calculated by fitting BRET values to a log(inhibitor) vs. response Hill equation.

The test system of assay [1] is LAPC4 prostate cancer cells, which express the AKT1 E17K allele. In words: Antiproliferative effects in LAPC4 cells (CellTiter Glo, 72 h). The class given is cell-based. The settings on record: read-out: LAPC4 proliferation IC50. As for the experimental part: Antiproliferative Effects in LAPC4 Cells.
LAPC4 prostate cancer cells (Klein, K. A. et al. Nat Med 1997, 3, 402-408), which express the AKT1 E17K allele, were grown in IMDM media (Hyclone) supplemented with 12% FBS+1% P/S. To assess compound effects on growth, 1,000 cells/well were seeded in 384 well assay plates, incubated with compound dilutions dissolved in DMSO. After 72 h, intracellular ATP content was assessed with CellTiter Glo reagent (Promega) according to the manufacturer's instructions. IC50 values were calculated by fitting luminescence values to a log(inhibitor) vs. response Hill equation.
Background: In ATP-based viability assays light output follows the ATP content of the culture.

In a further assay the target is T3, AKT1 WT (Homo sapiens, UniProt P31749).
T3 construct: expressed in transfected cells; host or cells: HEK293
In words: Live cell AKT1 WT target engagement by NanoBRET competitive probe displacement in HEK293 cells. The class given is binding. The settings on record: 2 h at 37° C., read-out: AKT1 WT IC50. In general terms: Bioluminescence resonance energy transfer reports proximity on the nanometre scale.

The mark [2] stands for this setting: NanoBRET competitive probe displacement, live HEK293 cells.
Setting [3] is: NanoBRET live cell target engagement, HEK293 cells.

T1 sequence (P31751 whole entry): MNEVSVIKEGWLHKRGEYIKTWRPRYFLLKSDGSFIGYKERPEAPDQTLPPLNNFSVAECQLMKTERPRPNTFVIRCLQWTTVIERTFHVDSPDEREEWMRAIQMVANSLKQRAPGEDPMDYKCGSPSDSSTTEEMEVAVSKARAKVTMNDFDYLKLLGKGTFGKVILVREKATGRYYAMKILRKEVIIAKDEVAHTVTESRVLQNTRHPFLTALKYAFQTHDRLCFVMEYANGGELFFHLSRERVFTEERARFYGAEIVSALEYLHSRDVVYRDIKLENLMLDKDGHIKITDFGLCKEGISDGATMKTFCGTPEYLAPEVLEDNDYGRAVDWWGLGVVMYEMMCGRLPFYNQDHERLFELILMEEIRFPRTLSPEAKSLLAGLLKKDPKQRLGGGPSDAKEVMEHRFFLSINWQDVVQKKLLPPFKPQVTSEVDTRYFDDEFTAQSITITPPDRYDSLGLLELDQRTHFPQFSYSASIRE
T2 sequence (P31749 whole entry E17K): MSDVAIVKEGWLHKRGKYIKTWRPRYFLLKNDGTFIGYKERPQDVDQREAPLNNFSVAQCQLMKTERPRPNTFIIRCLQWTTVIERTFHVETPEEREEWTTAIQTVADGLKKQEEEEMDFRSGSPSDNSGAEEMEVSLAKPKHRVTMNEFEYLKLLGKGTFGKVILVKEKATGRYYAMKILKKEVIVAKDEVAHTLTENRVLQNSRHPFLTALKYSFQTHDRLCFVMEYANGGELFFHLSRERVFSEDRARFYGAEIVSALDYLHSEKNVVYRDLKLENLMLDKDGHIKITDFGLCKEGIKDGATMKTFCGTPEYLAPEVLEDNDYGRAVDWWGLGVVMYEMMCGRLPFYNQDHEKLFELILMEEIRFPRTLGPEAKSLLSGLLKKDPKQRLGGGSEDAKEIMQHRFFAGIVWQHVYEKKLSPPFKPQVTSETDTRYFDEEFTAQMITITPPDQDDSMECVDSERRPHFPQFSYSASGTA
T3 sequence (P31749 whole entry): as the sequence (P31749 whole entry E17K) above, with K17E counted along it

In the case of `COCCOc1ccn(-c2ccc3nc(-c4cccnc4N)n(-c4ccc5c(c4)CC[C@@H]5NC4CCN(C(=O)C5CC5)CC4)c3n2)n1` [Compound 504], the IC50 at AKT2 (setting [2]) was 665 nM; at AKT1 E17K (setting [2]), over 1000 nM; in assay [1] (Homo sapiens, LAPC4, 72 h), 4410 nM; on AKT1 WT (setting [2]), 14.3 nM.
On to `Nc1ncccc1-c1nc2ccc(-n3cccn3)nc2n1-c1ccc2c(c1)CC[C@@H]2NC1CCc2cnccc21` (single isomer, unassigned) [Compound 474], for which the IC50 is 423 nM at AKT2 (setting [2]); 196 nM at AKT1 E17K (setting [2]); 2730 nM in assay [1] (Homo sapiens, LAPC4, 72 h); 14.9 nM on AKT1 WT (setting [2]).
Turning to `Cn1cc(C(=O)N[C@H]2CCc3cc(-n4c(-c5cccnc5N)nc5ccc(-n6cccn6)nc54)ccc32)ccc1=O` [Compound 24, (S)—N-(5-(2-(2-aminopyridin-3-yl)-5-(1H-pyrazol-1-yl)-3H-imidazo[4,5-b]pyridin-3-yl)-2,3-dihydro-1H-inden-1-yl)-1-methyl-6-oxo-1,6-dihydropyridine-3-carboxamide], the IC50 on AKT2 (setting [3]) is 846 nM; at AKT1 E17K (setting [3]), 232 nM; in assay [1] (Homo sapiens, LAPC4, 72 h), 6360 nM; on AKT1 WT (setting [3]), 55.1 nM.
On the same counts, the results for `Cc1nc(C(F)F)ccc1C(=O)N[C@H]1CCc2cc(-n3c(-c4cccnc4N)nc4ccc(-n5nccn5)nc43)ccc21` [Compound 392] are 5530 nM, over 1000 nM, over 10000 nM and 41.3 nM.
Turning to `Nc1ncccc1-c1nc2ccc(-n3cccn3)nc2n1-c1ccc2c(c1)CC[C@@H]2NC1CCN(C(=O)c2ccccn2)CC1` [Compound 358], the IC50 was 4640 nM on AKT2 (setting [3]); over 1000 nM at AKT1 E17K (setting [3]); 7530 nM in assay [1] (Homo sapiens, LAPC4, 72 h); 208 nM on AKT1 WT (setting [3]).
As for `Nc1ncccc1-c1nc2ccc(-n3cccn3)nc2n1-c1ccc2c(c1)CC[C@@H]2NC(=O)c1cc(O)c(O)cc1F` [Compound 351, N-[(1S)-5-[2-(2-aminopyridin-3-yl)-5-(pyrazol-1-yl)imidazo[4,5-b]pyridin-3-yl]-2,3-dihydro-1H-inden-1-yl]-2-fluoro-4,5-dihydroxybenzamide], the IC50 amounted to 497 nM at AKT2 (setting [3]); 82.5 nM on AKT1 E17K (setting [3]); 1140 nM in assay [1] (Homo sapiens, LAPC4, 72 h); 20.3 nM on AKT1 WT (setting [3]).
For the compound `Cc1ncccc1C(=O)N[C@H]1CCc2cc(-n3c(-c4cccnc4N)nc4ccc(-n5cccn5)nc43)ccc21` [Compound 29, (S)—N-(5-(2-(2-aminopyridin-3-yl)-5-(1H-pyrazol-1-yl)-3H-imidazo[4,5-b]pyridin-3-yl)-2,3-dihydro-1H-inden-1-yl)-2-methylnicotinamide], the IC50 at AKT2 (setting [3]) is 153 nM; on AKT1 E17K (setting [3]) it was 78.6 nM; in assay [1] (Homo sapiens, LAPC4, 72 h) it was 3650 nM; at AKT1 WT (setting [3]) it was 15.9 nM.
Take `Nc1ncccc1-c1nc2ccc(-n3cccn3)nc2n1-c1ccc2c(c1)CC[C@@H]2n1cnnc1CC1CC1` [Compound 384]: the IC50 at AKT2 (setting [3]) stood at 525 nM; at AKT1 E17K (setting [3]), 93.9 nM; in assay [1] (Homo sapiens, LAPC4, 72 h), 1260 nM; at AKT1 WT (setting [3]), 13.2 nM.
Take `Nc1ncccc1-c1nc2ccc(-n3cccn3)nc2n1-c1ccc2c(c1)CC[C@@H]2NC1CCN(C(=O)C2(F)CC2)CC1` [Compound 370]: the IC50 at AKT2 (setting [3]) is 1720 nM; at AKT1 E17K (setting [3]), 810 nM; in assay [1] (Homo sapiens, LAPC4, 72 h), over 10000 nM; at AKT1 WT (setting [3]), 58.4 nM.
`Nc1ncccc1-c1nc2ccc(-n3nccn3)nc2n1-c1ccc2c(c1)CC(F)[C@@H]2NC(=O)c1ccc(C(F)F)nc1` (stereo partly shown) [Compound 350]: the IC50 at AKT2 (setting [3]) amounted to 423 nM; at AKT1 E17K (setting [3]), 94.4 nM; in assay [1] it was 885 nM; at AKT1 WT (setting [3]), 11.5 nM.
In the case of `Cc1cc(N2CCC(N[C@H]3CCc4cc(-n5c(-c6cccnc6N)nc6ccc(-n7cccn7)nc65)ccc43)CC2)nc(C#N)n1` [Cpd 584, (S)-4-(4-((5-(2-(2-aminopyridin-3-yl)-5-(1H-pyrazol-1-yl)-3H-imidazo[4,5-b]pyridin-3-yl)-2,3-dihydro-1H-inden-1-yl)amino)piperidin-1-yl)-6-methylpyrimidine-2-carbonitrile], the IC50 at AKT2 (setting [2]) was 62.5 nM; on AKT1 E17K (setting [2]), 11.8 nM; at AKT1 WT (setting [2]), 6.1 nM.
